Results from patent US20020028938A1, “Prostaglandin endoperoxide H synthase biosynthesis inhibitors” (priority 1997, published 2002).

Experiments:
[1] = target: T1, recombinant human Cox-1 (r-hu Cox1) (Homo sapiens, UniProt P23219); test: Recombinant human PGHS-1 enzyme assay (RHUCX1); type: biochemical; details: for inhibition at 100 µM / inhibition at 10 µM: read-out: RHUCX1 % Inh. at Dose
T1 construct: made in house; host or cells: baculovirus/Sf9 insect cells (microsomes)
How it was run: (§1)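 Prostaglandin biosynthesis was measured as PGE2 output, read by enzyme immunoassay after a 2.5-minute room-temperature reaction stopped with HCl and neutralized with NaOH.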

[2] = test system: air pouch prostaglandin biosynthesis (Cox-2); test: Carrageenan induced air pouch prostaglandin biosynthesis model (CAP); type: in vivo, rat; details: 3 mpk, rat; for inhibition in vivo at 3 mg/kg: 4 h, read-out: CAP % Inhib. @ 3 mpk
Protocol: To compare the mean responses of the treatment groups, analysis of variance was applied. Percent inhibition values were determined by comparing the individual treatment mean values to the mean of the control group. Linear regression was used to estimate IC50's/ED50's in appropriate assays.
Carrageenan induced air pouch prostaglandin biosynthesis model (CAP) Air pouches are formed in the backs of male Sprague Dawley rats by injecting 20 mL of sterile air on day 0. Three days later the pouch was reinflated with an additional 10 mL of sterile air. On day 7, 1 mL of saline containing 0.2 % lambda carrageenan (Sigma Chemical Co.) is injected into the pouch to induce the inflammatory reaction that is characterized by the release of prostaglandins. Test compounds are dosed at 0.1 to 10 mg/kg 30 minutes prior to carrageenan. Four hours after the carrageenan injection the pouch is lavaged and levels of prostaglandins are determined by enzyme immuno-assay using commercially available kits. […] Values for Cox-2 inhibition that are parenthetical indicate ED50 values.

[3] = target: T2, recombinant human Cox-2 (r-hu Cox-2) (Homo sapiens, UniProt P35354); test: Recombinant human PGHS-2 enzyme assay (RHUCX2); type: biochemical; details: for IC50: read-out: RHUCX2 IC50 (parenthetical value)
T2 construct: made in house; host or cells: baculovirus/Sf9 insect cells (microsomes)
T2 sequence (P35354 18-604): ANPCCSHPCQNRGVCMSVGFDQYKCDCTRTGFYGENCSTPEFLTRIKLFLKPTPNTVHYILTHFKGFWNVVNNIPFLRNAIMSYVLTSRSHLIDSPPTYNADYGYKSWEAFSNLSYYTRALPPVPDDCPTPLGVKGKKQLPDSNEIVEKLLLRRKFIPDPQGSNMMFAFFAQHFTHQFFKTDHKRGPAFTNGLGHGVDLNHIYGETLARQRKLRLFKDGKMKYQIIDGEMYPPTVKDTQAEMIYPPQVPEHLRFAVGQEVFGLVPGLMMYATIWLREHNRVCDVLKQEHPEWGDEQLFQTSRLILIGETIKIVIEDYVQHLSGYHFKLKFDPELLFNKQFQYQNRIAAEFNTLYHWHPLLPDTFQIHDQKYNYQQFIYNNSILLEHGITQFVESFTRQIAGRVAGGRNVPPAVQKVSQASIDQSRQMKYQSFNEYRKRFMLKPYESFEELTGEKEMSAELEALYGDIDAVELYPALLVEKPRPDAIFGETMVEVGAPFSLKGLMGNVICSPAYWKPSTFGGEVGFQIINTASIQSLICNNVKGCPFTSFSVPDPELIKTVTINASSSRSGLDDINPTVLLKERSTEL
How it was run: as §1

[4] = target: T3, human amnionic whole cell cyclooxygenase-2 (WISH cells) (Homo sapiens, UniProt P35354); test: IL-1β induced PGE2 production in WISH cells; type: cell-based; details: read-out: Wish IC50 (parenthetical value)
T3 construct: endogenous in cells; host or cells: human amnionic WISH cells, induced with IL-1beta
T3 sequence (P35354 18-604): T2 sequence (P35354 18-604)
How it was run: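 Confluent (80%) WISH cells were stimulated with 5 ng/ml IL-1β in serum-free Neuman-Tytell medium, with or without test compound in DMSO (0.01% v/v). PGE2 in the culture medium was measured by EIA against standards prepared in the same medium, read by optical density.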

[5] = target: T4, Human Whole Platelet Cyclooxygenase-1 (Homo sapiens, UniProt P23219); test: Human Whole Platelet Cyclooxygenase-1 assay (HWPX); type: cell-based; details: read-out: HWPX IC50 (parenthetical value)
T4 construct: from tissue; host or cells: human blood: isolated platelets (A4) or heparinised whole blood (A9)
Protocol: Blood from normal healthy volunteers is collected into tubes containing ACD (acid citrate dextrose) as the anticoagulant. This blood is centrifuged at 175×g to prepare platelet rich plasma. The platelet rich plasma is then centrifuged at 100×g to pellet the white blood cells, leaving the platelets in the supernatant. The supernatant is layered on a cushion of 0.7 mL of 10% bovine serum albumin in Tyrodes solution (Gibco; Grand Island, N.Y.) and then centrifuged at 1000×g. The resulting supernatant from this centrifuigation is then removed and 11 mL of Tyrodes solution is added to the remaining pellet of platelets. The platelets are then aliquoted at 120 μl into a 96 well plate. Experimental compounds are added and allowed to pre-incubate for 10 minutes. At the end of this pre-incubation period, the calcium ionophore A23187 is added to a final concentration of 8.8 μM and the incubation is continued for ten minutes. The reaction is stopped by adding cold 6 mM EDTA, the incubation mixture is centrifuged at 220×g, and the supernatants are then analyzed for thromboxane using a commercial kit from Cayman Chemical (Ann Arbor, Mich.

[6] = 0.01 μM, read-out: RHUCX2 % Inh. at Dose
[7] = 0.1 μM, read-out: RHUCX2 % Inh. at Dose
[8] = 1 μM, read-out: RHUCX2 % Inh. at Dose

T1 sequence (P23219 24-599): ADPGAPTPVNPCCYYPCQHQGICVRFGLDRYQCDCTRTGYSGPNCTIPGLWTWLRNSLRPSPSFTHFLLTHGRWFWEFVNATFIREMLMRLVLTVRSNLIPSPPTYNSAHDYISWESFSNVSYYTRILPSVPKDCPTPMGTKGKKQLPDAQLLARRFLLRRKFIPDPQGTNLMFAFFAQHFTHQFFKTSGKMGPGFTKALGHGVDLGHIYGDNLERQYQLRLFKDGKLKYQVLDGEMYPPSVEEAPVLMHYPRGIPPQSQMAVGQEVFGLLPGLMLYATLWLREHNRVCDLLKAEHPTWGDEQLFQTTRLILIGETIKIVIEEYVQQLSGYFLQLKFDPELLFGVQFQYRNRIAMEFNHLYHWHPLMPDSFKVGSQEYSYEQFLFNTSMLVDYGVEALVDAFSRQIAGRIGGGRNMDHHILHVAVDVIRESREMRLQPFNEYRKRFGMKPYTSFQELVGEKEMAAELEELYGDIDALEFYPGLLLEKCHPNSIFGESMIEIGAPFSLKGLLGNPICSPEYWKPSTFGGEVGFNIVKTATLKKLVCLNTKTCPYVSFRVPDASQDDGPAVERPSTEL
T4 sequence (P23219 24-599): as above

Compound | inhibition in vivo at 3 mg/kg [2] [%] | melting point [°C] | inhibition at 100 µM ([1]; 100 μM) [%] | IC50 [3] [nM] | also measured
2-(2,3,3-Trifluorophenyl)-4-(4-fluorophenyl)-5-[4-(aminosulfonyl)phenyl]-3(2H)-pyridazinone [Example 450] | – | – | – | – | RHUCX1 % Inh. at Dose (μM) ([1]; 100 μM): 29 @ 100%; CAP % Inhib. @ 3 mpk [2]: 86%; RHUCX2 % Inh. at Dose (μM) ([3]; 0.01 μM): 22 @ 0.01%; RHUCX2 % Inh. at Dose (μM) ([3]; 0.1 μM): 40 @ 0.1%; RHUCX2 % Inh. at Dose (μM) ([3]; 1 μM): 87 @ 1%; IC50 [4]: 50 nM
CC(C)COc1c(-c2ccc(S(C)(=O)=O)c(F)c2)cnn(-c2ccc(F)c(Cl)c2)c1=O [Example 205, 2-(3-Chloro-4-fluorophenyl)-4-(2-methylpropoxy)-5-[3-fluoro-4-(methylsulfonyl)phenyl]-3(2H)-pyridazinone] | 54 | 142 to 144 | – | – | –
CS(=O)(=O)c1ccc(-c2cnn(-c3ccc(F)c(F)c3)c(=O)c2Cc2cccc(F)c2)cc1 [Example 243, 2-(3,4-Difluorophenyl)-4-(3-fluorobenzyl)-5-[4-(methylsulfonyl)phenyl]-3(2H)-pyridazinone] | 7 | 161 to 163 | – | – | IC50 [4]: 30 nM
CC(C)CCc1c(-c2ccc(S(C)(=O)=O)cc2)cnn(-c2ccc(F)c(Cl)c2)c1=O [Example 257, 2-(3-Chloro-4-fluorophenyl)-4-(3-methylbutyl)-5-[4-(methylsulfonyl)phenyl]-3(2H)-pyridazinone] | 60 | 55 to 58 | 0 | 40 | –
CC(C)COc1c(-c2ccc(S(C)(=O)=O)cc2)cnn(-c2ccc(F)c(F)c2)c1=O [Example 346, 2-(3,4-Difluorophenyl)-4-(2-methylpropoxy)-5-[4-(methylsulfonyl)phenyl]-3(2H)-pyridazinone] | 49.5 | 116 to 117 | 14 | – | inhibition at 0.01 µM [3, 6]: 48%; inhibition at 0.1 µM [3, 7]: 76%; inhibition at 1 µM [3, 8]: 94%
CCC(C)CCOc1c(-c2ccc(S(C)(=O)=O)cc2)cnn(-c2ccc(F)c(F)c2)c1=O (stereo not shown) [Example 351, 2-(3,4-Difluorophenyl)-4-(3-methylpentyloxy)-5-[4-(methylsulfonyl)phenyl]-3(2H)-pyridazinone] | 0 | 100 to 102 | 3 | – | inhibition at 0.01 µM [3, 6]: 42%; inhibition at 0.1 µM [3, 7]: 63%; inhibition at 1 µM [3, 8]: 91%
COC(C)CCOc1c(-c2ccc(S(C)(=O)=O)cc2)cnn(-c2ccc(F)c(F)c2)c1=O (stereo not shown) [Example 353, 2-(3,4-Difluorophenyl)-4-[3-(methoxy)butoxy]-5-[4-(methylsulfonyl)phenyl]-3(2H)-pyridazinone] | 0 | 99 to 101 | 6 | 826 | –
CC(C)CSc1c(-c2ccc(S(C)(=O)=O)cc2)cnn(-c2cccc(Cl)c2)c1=O [Example 361, 2-(3-Chlorophenyl)-4-[2-(methylpropyl)thiol]-5-[4-(methylsulfonyl)phenyl]-3(2H)-pyridazinone] | 65 | – | 3 | 11 | –
CC(C)CCc1c(-c2ccc(S(C)(=O)=O)cc2)cnn(-c2ccc(F)cc2)c1=O [Example 378] | – | – | – | – | CAP % Inhib. @ 3 mpk [2]: 59%
Cc1cc(-c2c(-c3ccc(S(N)(=O)=O)cc3)cnn(-c3ccc(F)cc3)c2=O)ccc1F [Example 390] | – | – | – | – | RHUCX1 % Inh. at Dose (μM) ([1]; 1 μM): 45 @ 1%; RHUCX1 % Inh. at Dose (μM) ([1]; 10 μM): 88 @ 10%; CAP % Inhib. @ 3 mpk [2]: 60%; RHUCX2 % Inh. at Dose (μM) ([3]; 0.1 μM): 60 @ 0.1%; RHUCX2 % Inh. at Dose (μM) ([3]; 1 μM): 72 @ 1%; RHUCX2 % Inh. at Dose (μM) ([3]; 10 μM): 99 @ 10%
Cc1cc(-c2c(-c3ccc(S(N)(=O)=O)cc3)cnn(-c3cccc(Cl)c3)c2=O)ccc1F [Example 391, 2-(3-Chlorophenyl)-4-(4-fluoro-3-methylphenyl)-5-[4-(aminosulfonpl)phenyl]-3(2h)-pyridazinone] | – | – | – | – | CAP % Inhib. @ 3 mpk [2]: 61%
CC(C)COc1c(-c2ccc(S(N)(=O)=O)cc2)cnn(-c2cccc(Cl)c2)c1=O [Example 395, 2-(3-Chlorophenyl)-4-(2-methylpropoxy)-5-[4-(aminosulfonyl)phenyl]-3(2H)-pyridazinone] | 71 | 80 to 85 | 91 | – | inhibition at 10 µM ([1]; 10 μM): 35%; inhibition at 0.01 µM [3, 6]: 34%; inhibition at 0.1 µM [3, 7]: 77%; inhibition at 1 µM [3, 8]: 93%
CC(C)CCc1c(-c2ccc(S(N)(=O)=O)cc2)cnn(-c2ccc(F)c(Cl)c2)c1=O [Example 405, 2-(3-Chloro-4-fluorophenyl)-4-(3-methylbutyl)-5-[4-(aminosulfonyl)phenyl]-3(2H)-pyridazinone] | 53 | 154 to 156 | 90 | 198 | inhibition at 10 µM ([1]; 10 μM): 61%
NS(=O)(=O)c1ccc(-c2cnn(-c3ccc(F)c(F)c3)c(=O)c2Oc2ccc(F)cc2)cc1F [Example 407] | 61 | 224 to 226 | 32 | 170 | –
CS(=O)(=O)c1ccc(-c2cnn(-c3cccc(Cl)c3)c(=O)c2OCC2CC2)cc1 [Example 418, 2-(3-Chlorophenyl)-4-cyclopropanemethoxy-5-[4-(methylsulfonyl)phenyl]-3(2H)-pyridazinone] | – | 158 to 161 | 33 | – | IC50 [5]: 14200 nM; inhibition at 0.025 µM ([3]; 0.025 μM, read-out: RHUCX2 % Inh. at Dose): 53%; inhibition at 0.1 µM [3, 7]: 52%; inhibition at 1 µM [3, 8]: 85%; IC50 [4]: 250 nM
CS(=O)(=O)c1ccc(-c2cnn(-c3cccc(Cl)c3)c(=O)c2OCCC2CC2)cc1 [Example 419, 2-(3-Chlorophenyl)-4-(2-cyclopropane-1-ethoxy)-5-[4-(methylsulfonyl)phenyl]-3(2H)-pyridazinone] | 48 | 124 to 128 | 12 | 100 | –
C=C(C)CCOc1c(-c2ccc(S(C)(=O)=O)cc2)cnn(-c2cccc(Cl)c2)c1=O [Example 427, 2-(3-Chlorophenyl)-4-(3-methyl-3-butenoxy)-5-[4-(methylsulfonyl)phenyl]-3(2H)-pyridazinone] | 78 | 110 to 112 | – | – | –
CC(C)(O)COc1c(-c2ccc(S(N)(=O)=O)cc2)cnn(-c2ccc(F)c(F)c2)c1=O [Example 459] | – | – | – | – | CAP % Inhib. @ 3 mpk [2]: 45%
C[C@@H](CO)COc1c(-c2ccc(S(N)(=O)=O)cc2)cnn(-c2ccc(F)c(F)c2)c1=O [Example 464, (S)-2-(3,4-Difluorophenyl)-4-(3-hydroxy-2-methyl-1-propoxy)-5-[4-(aminosulfonyl)phenyl]-3(2H)-pyridazinone] | 70 | – | – | – | –
